For data set [1] the following is noted: human.
Experimental: At 37±0.5° C., the hydrolysis rate of the prodrugs was measured in 80% human plasma. An appropriate aliquot (20-100 μL) of 1 mg/ml prodrug solution in methanol was transferred to 5.0 ml of preheated plasma. At appropriate time intervals, 300 μl sample aliquots were withdrawn and transferred to 600 μl acetonitrile and mixed thoroughly. After centrifugation at 13500 rpm for 5 min, the supernatant was analyzed by HPLC for parent drug and remaining prodrug.
A short description of data set [2]: Stability (cleavage to parent drug) of prodrug suspensions in PBS pH 7.4. The format is physicochemical. The following applies: for estimated pseudo first-order rate constant (khyd) for cleavage: PBS pH 7.4, 37° C., calculated from k0 and Sprodrug; for apparent pseudo-zero-order rate constant (k0): appearance of parent drug from suspension in PBS pH 7.4, 37° C.
Experimental: Suspensions of the prodrugs in 67 mM phosphate buffer pH 7.4 (PBS) were prepared by adding 10 mL PBS to approximately 5 mg prodrug. The suspensions were kept unstirred at 37° C. in an incubator hood. At appropriate time intervals over 23 days, about 500 μL samples were taken and after filtration (disposable syringe filters), the solutions were analyzed immediately by HPLC for parent drug and remaining prodrug. Quantitation of parent drug and prodrug was done from peak area measurements in relations to those of standards analysed by HPLC at the same conditions. […] Reversed phase chromatography was performed using a C18 Gemini® RP column (150×4.6 mm, 5 μm particles) (Phenomenex, Torrance, Calif., USA) equipped with a SecurityGuard precolumn (Phenomenex, Torrance, Calif., USA). The flow rate was set at 1 mL/min and the column effluent was monitored at 230 nm. The mobile phase consisted of 35% (v/v) acetonitrile and 65% (v/v) of 0.1% (v/v) phosphoric acid pH 3.2. The retention times varied in the range of 3 to 30 min.
From the observed relatively stable concentration of dissolved prodrugs measured in the suspensions after 8-9 day up to 23 days, the solubilities of the prodrugs (Sprodrug) were determined. In this time interval, the rate of appearance of parent drug was determined and an apparent pseudo-zero-order rate constant (k0) was obtained. By assuming that the dissolution rates were much faster than the conversion of the prodrugs to the parent drug, pseudo first-order rate constants (khyd) for cleavage of the prodrugs were calculated according to:
The nature of data set [3]: Solubility of DPX-2-0006 at pH 3 in the presence of N,N-dimethyl acetamide (DMA). In kind it is physicochemical. The following applies: aqueous with cosolvent or surfactant or cyclodextrin, thermodynamic from solid, acidic suspension (pH 3), 37° C. The method, then: A suspension of DPX-2-0006 was formed by adding 10 mg to 3 mL demineralized water, 0.05 mL 0.100 M HCl was added to obtain a pH of 3. After rotation of the suspension at 37° C. for 1 days, 0.5 mL sample was taken and after filtration (disposable syringe filters), the solution was diluted in methanol:water 1:1 and analyzed immediately by HPLC for prodrug. […] The HPLC method described in Example 29 was applied and the retention time of DPX-2-0006 was 14 min, respectively. N,N-dimethylacetamide (DMA) was added stepwise to the acidic suspension of DPX-2-0006 and the amount of DPX-2-0006 dissolved in the presence of various volumes of DMA was determined after 1-3 days rotation at 37° C. as described above.

Data set [4] can be described thus: Solubility of the prodrugs in PBS (67 mM phosphate buffer pH 7.4) at 37° C. The format is physicochemical. The following applies: 67 mM phosphate buffer pH 7.4 (PBS), aqueous buffer, thermodynamic from solid, read-out: Sprodrug ± SD.
Experimental: The determination of the solubility of a prodrug at different pH values of interest according to the present invention is carried by adding excess solid prodrug to a container containing a buffer solution with well-defined pH. The mixture is rotated at constant temperature until an equilibrium between solid prodrug and prodrug in solution has established (that is until the prodrug concentration in the supernatant remains constant). At each measurement the pH of the supernatant is controlled and eventually adjusted to the desired pH.
Suspensions of the prodrugs in 67 mM phosphate buffer pH 7.4 (PBS) were prepared by adding 10 mL PBS to approximately 5 mg prodrug. The suspensions were kept unstirred at 37° C. in an incubator hood. At appropriate time intervals over 23 days, about 500 μL samples were taken and after filtration (disposable syringe filters), the solutions were analyzed immediately by HPLC for parent drug and remaining prodrug. Quantitation of parent drug and prodrug was done from peak area measurements in relations to those of standards analysed by HPLC at the same conditions. […] The flow rate was set at 1 mL/min and the column effluent was monitored at 230 nm. […]
From the observed relatively stable concentration of dissolved prodrugs measured in the suspensions after 8-9 day up to 23 days, the solubilities of the prodrugs (Sprodrug) were determined. […]
The nature of data set [5]: Precipitation on addition of acidic prodrug solution to 67 mM phosphate buffer pH 7.4. In kind it is physicochemical. Conditions: 1.0 mL concentrated aqueous solution pH 3.4 added to 1.0 mL 67 mM phosphate buffer pH 7.4. How it is done: The pH in the suspension was measured to 7.0.

≈ marks a conversion by molar mass, not a printed value. Like-named read-outs stand apart in the source and are kept apart here.

In the case of `COc1ccc2cc(C(C)C(=O)OCCn3ccnc3)ccc2c1` (stereo not shown), the “t1/2 in plasma (hydrolysis)” value in data set [1] is 1.07 h.
In the case of `O=C(Cc1ccccc1Nc1c(Cl)cccc1Cl)OCCc1ccccn1` [DPX-1-0004, 2-(pyridin-2-yl)ethyl 2-(2-((2,6-dichlorophenyl)amino)phenyl)acetate], in data set [2], the “estimated pseudo first-order rate constant (khyd) for cleavage” value is 0.15 day⁻¹ and the “apparent pseudo-zero-order rate constant (k0)” value was 1.1e-06 M/day.
Consider `O=C(Cc1ccccc1Nc1c(Cl)cccc1Cl)OCCn1cnc2ccccc21` [DPX-1-0006, 2-(1H-benzo[d]imidazol-1-yl)ethyl 2-(2-((2,6-dichlorophenyl)amino)phenyl)acetate], for which, in data set [2], the “estimated pseudo first-order rate constant (khyd) for cleavage” value is 0.17 day⁻¹ and the “apparent pseudo-zero-order rate constant (k0)” value was found to be 2.4e-06 M/day.
Taken in the same sequence, the figures for `O=C(Cc1ccccc1Nc1c(Cl)cccc1Cl)OCCn1ccnc1-c1ccccc1` [DPX-1-0007, 2-(2-phenyl-1H-imidazol-1-yl)ethyl 2-(2-((2,6-dichlorophenyl)amino)phenyl)acetate] were 0.0029 day⁻¹ and 2.5e-07 M/day.
As for `COc1ccc2cc(C(C)C(=O)OCCc3ccccn3)ccc2c1` (stereo not shown) [DPX-2-0004, 2-(pyridin-2-yl)ethyl 2-(6-methoxynaphthalen-2-yl)propanoate], in data set [2], the “estimated pseudo first-order rate constant (khyd) for cleavage” value was 0.033 day⁻¹ and the “apparent pseudo-zero-order rate constant (k0)” value is 1.7e-06 M/day.
With `COc1ccc2cc(C(C)C(=O)OCCn3cnc4ccccc43)ccc2c1` (stereo not shown) [DPX-2-0006, 2-(1H-benzo[d]imidazol-1-yl)ethyl 2-(6-methoxynaphthalen-2-yl)propanoate], the solubility in data set [3] (acidified demineralized water with 5% (v/v) DMA, 5% (v/v) DMA, read-out: solubility in the presence of 5% (v/v) DMA) was 250 µg/mL; in data set [3] (acidified demineralized water with 15% (v/v) DMA, 15% (v/v) DMA, read-out: solubility in the presence of 15% (v/v) DMA), 350 µg/mL; in data set [3] (acidified demineralized water with 30% (v/v) DMA, 30% (v/v) DMA, read-out: solubility in the presence of 30% (v/v) DMA), 570 µg/mL; in data set [3] (acidified demineralized water with 50% (v/v) DMA, 50% (v/v) DMA, read-out: solubility in the presence of 50% (v/v) DMA) it was 2250 µg/mL. In addition, the “estimated pseudo first-order rate constant (khyd) for cleavage” value in data set [2] is 0.066 day⁻¹. In addition, in data set [2], the “apparent pseudo-zero-order rate constant (k0)” value was 1e-06 M/day. Further, the solubility thermodynamic in data set [4] came out at 5 ± 1 µg/mL (≈ 13.4 µM).
Take `COc1ccc2cc(C(C)C(=O)OCCn3ccnc3-c3ccccc3)ccc2c1` (stereo not shown) [DPX-2-0007, 2-(2-phenyl-1H-imidazol-1-yl)ethyl 2-(6-methoxynaphthalen-2-yl)propanoate]: the “precipitation on mixing with buffer pH 7.4” value in data set [5] was “a precipitation was immediately observed”. Further, in data set [2], the “estimated pseudo first-order rate constant (khyd) for cleavage” value is 0.065 day⁻¹ and the “apparent pseudo-zero-order rate constant (k0)” value was found to be 1e-06 M/day.

The values are drawn from patent US9937262B2 (priority 2013, dated 2018).
